Measurements reported in PubChem BioAssay (NCI).
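How tested: cells in 96-well plates exposed to compound for 48 hours at five concentrations. At the GI50, growth is halved. TGI is the concentration that stops growth completely.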

Key:
Experiment in all cases: NCI anticancer screen, dose series, 48 h
NCI-H460 lung = tested on: NCI-H460 lung
RPMI-8226 leukemia = tested on: RPMI-8226 leukemia
M14 melanoma = tested on: M14 melanoma
A549 NSCLC = tested on: A549 NSCLC
OVCAR-5 ovarian = tested on: OVCAR-5 ovarian
TK-10 renal = tested on: TK-10 renal
IGROV1 ovarian = tested on: IGROV1 ovarian
SK-MEL-2 melanoma = tested on: SK-MEL-2 melanoma
HT29 colon = tested on: HT29 colon
CAKI-1 renal = tested on: CAKI-1 renal
SNB-19 CNS = tested on: SNB-19 CNS
NCI-H226 lung = tested on: NCI-H226 lung
MDA-MB-231 breast = tested on: MDA-MB-231 breast
SF-539 CNS = tested on: SF-539 CNS
U251 CNS = tested on: U251 CNS
HCC-2998 colon = tested on: HCC-2998 colon
SNB-75 CNS = tested on: SNB-75 CNS
COLO 205 colon = tested on: COLO 205 colon
MDA-N = tested on: MDA-N
RXF 393 renal = tested on: RXF 393 renal
T-47D breast = tested on: T-47D breast
SR leukemia = tested on: SR leukemia
EKVX NSCLC = tested on: EKVX NSCLC
MALME-3M melanoma = tested on: MALME-3M melanoma
SF-295 CNS = tested on: SF-295 CNS
K-562 leukemia = tested on: K-562 leukemia
MCF7 breast = tested on: MCF7 breast
DU-145 prostate = tested on: DU-145 prostate
MDA-MB-435 = tested on: MDA-MB-435
HCT-15 colon = tested on: HCT-15 colon
SK-MEL-28 melanoma = tested on: SK-MEL-28 melanoma
OVCAR-4 ovarian = tested on: OVCAR-4 ovarian
HOP-92 NSCLC = tested on: HOP-92 NSCLC
PC-3 prostate = tested on: PC-3 prostate
CCRF-CEM leukemia = tested on: CCRF-CEM leukemia
MOLT-4 leukemia = tested on: MOLT-4 leukemia
SK-OV-3 ovarian = tested on: SK-OV-3 ovarian
OVCAR-8 ovarian = tested on: OVCAR-8 ovarian
NCI/ADR-RES ovarian = tested on: NCI/ADR-RES ovarian
UACC-62 melanoma = tested on: UACC-62 melanoma
786-0 renal = tested on: 786-0 renal
SN12C renal = tested on: SN12C renal
SW-620 colon = tested on: SW-620 colon
HOP-62 NSCLC = tested on: HOP-62 NSCLC
ACHN renal = tested on: ACHN renal
NCI-H522 lung = tested on: NCI-H522 lung
HS 578T breast = tested on: HS 578T breast
LOX IMVI melanoma = tested on: LOX IMVI melanoma
HCT-116 colon = tested on: HCT-116 colon
UACC-257 melanoma = tested on: UACC-257 melanoma
SK-MEL-5 melanoma = tested on: SK-MEL-5 melanoma
UO-31 renal = tested on: UO-31 renal
NCI-H23 lung = tested on: NCI-H23 lung
BT-549 breast = tested on: BT-549 breast
OVCAR-3 ovarian = tested on: OVCAR-3 ovarian
SF-268 CNS = tested on: SF-268 CNS
HL-60(TB) leukemia = tested on: HL-60(TB) leukemia
KM12 colon = tested on: KM12 colon
A498 renal = tested on: A498 renal

Compound: COc1ccc2c3c1OC1C(=O)C=CC4(O)C(C2)NCC[C@@]314 (stereo not given in full)
- TGI (NCI-H460 lung): 13.2 µM
- TGI (RPMI-8226 leukemia): 13.2 µM
- TGI (M14 melanoma): 6.61 µM
- TGI (A549 NSCLC): 18.2 µM
- TGI (OVCAR-5 ovarian): 8.84 µM
- TGI (TK-10 renal): 4.99 µM
- TGI (IGROV1 ovarian): 15.1 µM
- TGI (SK-MEL-2 melanoma): 6.65 µM
- TGI (HT29 colon): 11.7 µM
- TGI (CAKI-1 renal): 8.49 µM
- TGI (SNB-19 CNS): 19.1 µM
- TGI (NCI-H226 lung): 25.7 µM
- TGI (MDA-MB-231 breast): 9.01 µM
- TGI (SF-539 CNS): 4.02 µM
- TGI (U251 CNS): 7.15 µM
- TGI (HCC-2998 colon): 6.1 µM
- TGI (SNB-75 CNS): 4.32 µM
- TGI (COLO 205 colon): 3.02 µM
- TGI (MDA-N): 4.91 µM
- TGI (RXF 393 renal): 3.74 µM
- TGI (T-47D breast): 5.69 µM
- TGI (SR leukemia): 35.8 µM
- TGI (EKVX NSCLC): 7.95 µM
- TGI (MALME-3M melanoma): 2.81 µM
- TGI (SF-295 CNS): 14.9 µM
- TGI (K-562 leukemia): > 80.8 µM
- TGI (MCF7 breast): 9.17 µM
- TGI (DU-145 prostate): 13.1 µM
- TGI (MDA-MB-435): 5.79 µM
- TGI (HCT-15 colon): 11.3 µM
- TGI (SK-MEL-28 melanoma): 22.7 µM
- TGI (OVCAR-4 ovarian): 12.9 µM
- TGI (HOP-92 NSCLC): 20.5 µM
- TGI (PC-3 prostate): 12.2 µM
- TGI (CCRF-CEM leukemia): 2.76 µM
- TGI (MOLT-4 leukemia): 9.13 µM
- TGI (SK-OV-3 ovarian): 11.2 µM
- TGI (OVCAR-8 ovarian): 6.36 µM
- TGI (NCI/ADR-RES ovarian): 20.3 µM
- TGI (UACC-62 melanoma): 12.7 µM
- TGI (786-0 renal): 5.02 µM
- TGI (SN12C renal): 4.42 µM
- TGI (SW-620 colon): 5.81 µM
- TGI (HOP-62 NSCLC): 9.87 µM
- TGI (ACHN renal): 12.6 µM
- TGI (NCI-H522 lung): 1.99 µM
- TGI (HS 578T breast): 6.39 µM
- TGI (LOX IMVI melanoma): 5.15 µM
- TGI (HCT-116 colon): 6.32 µM
- TGI (UACC-257 melanoma): 5.3 µM
- TGI (SK-MEL-5 melanoma): 16.4 µM
- TGI (UO-31 renal): 8.53 µM
- TGI (NCI-H23 lung): 5.64 µM
- TGI (BT-549 breast): 6.32 µM
- TGI (OVCAR-3 ovarian): 3.99 µM
- TGI (SF-268 CNS): 7.55 µM
- TGI (HL-60(TB) leukemia): 4.4 µM
- TGI (KM12 colon): 8.59 µM
- TGI (A498 renal): 9.39 µM

Compound: O=C(Oc1ccccc1)c1cc2cc(CCl)ccc2oc1=O
- TGI (NCI-H460 lung): 51.6 µM
- TGI (RPMI-8226 leukemia): > 100 µM
- TGI (M14 melanoma): 67.1 µM
- TGI (A549 NSCLC): > 100 µM
- TGI (OVCAR-5 ovarian): > 100 µM
- TGI (TK-10 renal): 43.8 µM
- TGI (IGROV1 ovarian): > 100 µM
- TGI (SK-MEL-2 melanoma): 15.3 µM
- TGI (HT29 colon): > 100 µM
- TGI (CAKI-1 renal): 29.8 µM
- TGI (SNB-19 CNS): > 100 µM
- TGI (NCI-H226 lung): > 100 µM
- TGI (MDA-MB-231 breast): 82 µM
- TGI (SF-539 CNS): > 100 µM
- TGI (U251 CNS): > 100 µM
- TGI (HCC-2998 colon): 47.1 µM
- TGI (SNB-75 CNS): 57.3 µM
- TGI (COLO 205 colon): 52.9 µM
- TGI (MDA-N): > 100 µM
- TGI (RXF 393 renal): 27.9 µM
- TGI (T-47D breast): 38.7 µM
- TGI (SR leukemia): > 100 µM
- TGI (EKVX NSCLC): 38.5 µM
- TGI (MALME-3M melanoma): 8.11 µM
- TGI (SF-295 CNS): 98.4 µM
- TGI (K-562 leukemia): > 100 µM
- TGI (MCF7 breast): > 100 µM
- TGI (DU-145 prostate): 98.7 µM
- TGI (MDA-MB-435): > 100 µM
- TGI (HCT-15 colon): > 100 µM
- TGI (SK-MEL-28 melanoma): > 100 µM
- TGI (OVCAR-4 ovarian): 68.9 µM
- TGI (HOP-92 NSCLC): 28.7 µM
- TGI (PC-3 prostate): 29.2 µM
- TGI (CCRF-CEM leukemia): > 100 µM
- TGI (MOLT-4 leukemia): > 100 µM
- TGI (SK-OV-3 ovarian): 83.2 µM
- TGI (OVCAR-8 ovarian): > 100 µM
- TGI (NCI/ADR-RES ovarian): > 100 µM
- TGI (UACC-62 melanoma): 27.5 µM
- TGI (786-0 renal): 64.4 µM
- TGI (SN12C renal): 67.4 µM
- TGI (SW-620 colon): > 100 µM
- TGI (HOP-62 NSCLC): > 100 µM
- TGI (ACHN renal): 21.1 µM
- TGI (NCI-H522 lung): 24.6 µM
- TGI (HS 578T breast): 52.8 µM
- TGI (LOX IMVI melanoma): > 100 µM
- TGI (HCT-116 colon): > 100 µM
- TGI (UACC-257 melanoma): 27.5 µM
- TGI (SK-MEL-5 melanoma): 27.5 µM
- TGI (UO-31 renal): 68.1 µM
- TGI (NCI-H23 lung): 42 µM
- TGI (BT-549 breast): > 100 µM
- TGI (OVCAR-3 ovarian): > 100 µM
- TGI (SF-268 CNS): 73.9 µM
- TGI (HL-60(TB) leukemia): > 100 µM
- TGI (KM12 colon): > 100 µM
- TGI (A498 renal): 33.9 µM

Compound: O=C1OC(c2ccc(O)c(Cl)c2)(c2ccc(O)c(Cl)c2)c2ccc(Br)c3cccc1c23 (tested in a mixture with another compound)
- TGI (NCI-H460 lung): 34.7 µM
- TGI (RPMI-8226 leukemia): 44.5 µM
- TGI (M14 melanoma): 49.6 µM
- TGI (A549 NSCLC): 38.9 µM
- TGI (OVCAR-5 ovarian): 34.5 µM
- TGI (TK-10 renal): 37 µM
- TGI (IGROV1 ovarian): 44.5 µM
- TGI (SK-MEL-2 melanoma): 42.1 µM
- TGI (HT29 colon): 29.3 µM
- TGI (CAKI-1 renal): 29.2 µM
- TGI (SNB-19 CNS): 44.4 µM
- TGI (NCI-H226 lung): 41.1 µM
- TGI (MDA-MB-231 breast): 29.4 µM
- TGI (SF-539 CNS): 32.4 µM
- TGI (U251 CNS): 38.2 µM
- TGI (HCC-2998 colon): 35 µM
- TGI (SNB-75 CNS): 37.8 µM
- TGI (COLO 205 colon): 23.1 µM
- TGI (MDA-N): 45.9 µM
- TGI (RXF 393 renal): 32.5 µM
- TGI (T-47D breast): 13.3 µM
- TGI (SR leukemia): 45.4 µM
- TGI (EKVX NSCLC): 29.3 µM
- TGI (MALME-3M melanoma): 39.3 µM
- TGI (SF-295 CNS): 36.6 µM
- TGI (K-562 leukemia): 46.2 µM
- TGI (MCF7 breast): 30.6 µM
- TGI (DU-145 prostate): 46.8 µM
- TGI (MDA-MB-435): 34.3 µM
- TGI (HCT-15 colon): 44 µM
- TGI (SK-MEL-28 melanoma): 36 µM
- TGI (OVCAR-4 ovarian): 11.6 µM
- TGI (HOP-92 NSCLC): 26.1 µM
- TGI (PC-3 prostate): 28.8 µM
- TGI (CCRF-CEM leukemia): 42.3 µM
- TGI (MOLT-4 leukemia): 41.8 µM
- TGI (SK-OV-3 ovarian): 32.2 µM
- TGI (OVCAR-8 ovarian): 51.9 µM
- TGI (NCI/ADR-RES ovarian): 32.5 µM
- TGI (UACC-62 melanoma): 26.1 µM
- TGI (786-0 renal): 35.8 µM
- TGI (SN12C renal): 32 µM
- TGI (SW-620 colon): 41.1 µM
- TGI (HOP-62 NSCLC): 40.3 µM
- GI50 (ACHN renal): 13.9 µM
- TGI (ACHN renal): 27.2 µM
- GI50 (NCI-H522 lung): 17.8 µM
- TGI (NCI-H522 lung): 35.7 µM
- TGI (HS 578T breast): > 53.1 µM
- TGI (LOX IMVI melanoma): 40.3 µM
- TGI (HCT-116 colon): 36.3 µM
- TGI (UACC-257 melanoma): 34.8 µM
- TGI (SK-MEL-5 melanoma): 31.3 µM
- TGI (UO-31 renal): 33.4 µM
- TGI (NCI-H23 lung): 34.8 µM
- TGI (BT-549 breast): 18.6 µM
- TGI (OVCAR-3 ovarian): 21.8 µM
- TGI (SF-268 CNS): 31.3 µM
- GI50 (HL-60(TB) leukemia): 17.5 µM
- TGI (HL-60(TB) leukemia): 41.8 µM
- TGI (KM12 colon): 42.2 µM
- TGI (A498 renal): 31.7 µM
